This assay concerns Pseudomonas aeruginosa PAO1. Put plainly: MBEC assay, biofilm formation of P. aeruginosa PAO1. The following applies: compound concentration 100 μM, class symbols. It is filed as cell-based. As to the method: The compound to be tested was dissolved in DMSO to obtain a concentration that was 100 times that of the final concentration required (1 mM for the 10 μM assay and 10 mM for the 100 μM assay). 1.5 μL of the above solution was placed into each well of a 96 well plate (final volume in each well=150 μL, final DMSO concentration of 1% (v/v)).
To grow the organism and form a biofilm, a cryogenic stock of the test organism (at −70° C.) was used. A first sub-culture was streaked out onto TSA (tryptic soy agar), upon which the plate was incubated at 35±2° C. for 24 hours and stored wrapped in parafilm at 4° C. afterwards. From this first sub-culture, a second sub-culture was streaked out onto TSA. The plate was incubated at 35±2° C. for 24 hours. The second sub-culture was used within 24 hours starting from the time it was first removed from incubation. Using the second sub-culture an inoculum in 3 mL sterile water that matches a 0.5 McFarland Standard (1.5×10^8 cells per mL) was created in a glass test tube using a sterile cotton swab. 2.2 mL of this solution was diluted in 22 mL 100% TSB (tryptic soy broth) medium to a cell density of approximately […]. The diluted organism was inverted 3-5 times to achieve uniform mixing of the organism. One sample (100 μl) of the diluted organism was used for an inoculum check by serially diluting and spot plating on TSA.
To prepare a challenge plate, […] of the diluted organism was added to each well of a 96 well plate except the sterility control wells. The test compounds were added to the wells to make up final concentrations of 10 μM and […] (1.5 μL/well) in the designated location in the test plate. 128.5 μL of 100% universal neutralizer (1% Tween 80 in Cation Adjusted Mueller Hinton Broth, CAMHB) was placed in each of the wells. 130 μL of media was added to the growth control wells. 128.5 μL of media+1.5 μL of DMSO were added to a second set of growth control wells. 150 μL of media was added to the sterility controls. Each sample was run in triplicate. The plate was covered by a lid with a peg per well and wrapped in parafilm and placed on a shaker in a humidified incubator (GeneVac) at 35±+2° C. for 24 hours set at 110 rpm.
Rinse plate(s) of 0.9% saline (200 μL per well) were prepared in a sterile 96 well microtitre plate. Lid-associated pegs were rinsed in 0.9% saline for approximately 1-2 minutes. The peg lid was transferred to the recovery media (1.0% Tween 80 in CAMHB) then sonicated for 30 minutes to dislodge surviving biofilm. Following sonication, 100 μL from each well of the 96 well plate was placed into the first 12 wells of the first row of a 96 well microtiter plate. 180 μl of 0.9% sterile saline was placed in the remaining rows. A serial dilution (10^0-10^7) was prepared by moving 20 μl down each of the 8 rows. 20 μl from each well was removed and spot plated on a prepared TSA. In the remaining recovery plate, 100 μl of fresh growth media (1.0% Tween 80 in CAMHB) was placed in each well to replace the amount removed. The recovery plate was covered with a regular lid and incubated at 35±2° C. for 24 hours and read visually to confirm antimicrobial activity of the test compounds.
The compounds of the present disclosure have been tested regarding their efficiency to inhibit biofilm formation of Staphylococcus aureus U of C#18 (MRSA), Staphylococcus aureus 456 (MRSA), Staphylococcus epidermidis RP62A, and Pseudomonas aeruginosa PAO1.
For `CCCCCCCCCC(=O)N[C@@H]1CCCC[C@H]1O` (relative stereo) [Example 34, trans-N-(2-hydroxycyclohexyl)decanamide], the inhibition at 100 µM was in the range of 20 to 50%.

Consider `CCCCCCCCCCCC(=O)N[C@@H]1CCCC[C@H]1O` (relative stereo) [Example 35, trans-N-(2-hydroxycyclohexyl)dodecanamide], for which the inhibition at 100 µM fell in the range of 20 to 50%.

`CCCCCCCCCC(=O)N[C@H]1CCC[C@H]1C(=O)O` (relative stereo) [Example 36, cis-2-decanamidocyclopentanecarboxylic acid] returned an inhibition at 100 µM of under 20%.

`CCCCCCCCCCCC(=O)Nc1ccccc1` [Example 13, N-phenyldodecanamide]: the inhibition at 100 µM is under 20%.

Compound `CCCCCCCCCCCC(=O)N(C)c1ccccc1` [Example 14, N-methyl-N-phenyldodecanamide] came in with an inhibition at 100 µM of over 50%.

Compound `CCCCCCCCCCCC(=O)Nc1ccccc1F` [Example 15, N-(2-fluorophenyl)dodecanamide] showed an inhibition at 100 µM of under 20%.

In turn, `CCCCCCCCCCCC(=O)N(C)c1ccccc1F` [Example 16, N-(2-fluorophenyl)-N-methyldodecanamide] returned an inhibition at 100 µM of over 50%.

Consider `CCCCCCCCCCCC(=O)Nc1cccc(F)c1` [Example 17, N-(3-fluorophenyl)dodecanamide], for which the inhibition at 100 µM is 20 to 50%.

As for `CCCCCCCCCCCC(=O)N(C)c1cccc(F)c1` [Example 18, N-(3-fluorophenyl)-N-methyldodecanamide], the inhibition at 100 µM is over 50%.

For `CCCCCCCCCCCC(=O)Nc1ccc(F)cc1` [Example 19, N-(4-fluorophenyl)dodecanamide], the inhibition at 100 µM is under 20%.

The compound `CCCCCCCCCCCC(=O)N(C)c1ccc(F)cc1` [Example 20, N-(4-fluorophenyl)-N-methyldodecanamide] registered an inhibition at 100 µM of over 50%.

Take `CCCCCCCCCCCC(=O)Nc1ccc(F)cc1F` [Example 21, N-(2,4-difluorophenyl)dodecanamide]: the inhibition at 100 µM was under 20%.

In the case of `CCCCCCCCCCCC(=O)N(C)c1ccc(F)cc1F` [Example 22, N-(2,4-difluorophenyl)-N-methyldodecanamide], the inhibition at 100 µM is over 50%.

On to `CCCCCCCCCCCC(=O)Nc1ccccc1C(F)(F)F` [Example 23, N-(2-(trifluoromethyl)phenyl)dodecanamide], for which the inhibition at 100 µM was under 20%.

The compound `CCCCCCCCCCCC(=O)Nc1ccc(F)cc1C(F)(F)F` [Example 24, N-(4-fluoro-2-(trifluoromethyl)phenyl)dodecanamide] registered an inhibition at 100 µM of under 20%.

Consider `CCCCCCCCCCCC(=O)Nc1ccccc1C(=O)O` [Example 25, 2-dodecanamidobenzoic acid], for which the inhibition at 100 µM was over 50%.

In turn, `CCCCCCCCCCCC(=O)N(C)c1ccccc1C(=O)O` [Example 26, 2-(N-methyldodecanamido)benzoic acid] returned an inhibition at 100 µM of 20 to 50%.

`CCCCCCCCCCCC(=O)Nc1ccccc1S(=O)(=O)O` [Example 27, 2-dodecanamidobenzenesulfonic acid]: the inhibition at 100 µM was in the range of 20 to 50%.

`CCCCCCCCCCCC(=O)N[C@@H](C)c1ccccc1` [Example 28, (S)-N-(1-phenylethyl)dodecanamide]: the inhibition at 100 µM fell in the range of 20 to 50%.

Take `CCCCCCCCCC(=O)NCc1ccco1` [Example 29, N-(furan-2-ylmethyl)decanamide]: the inhibition at 100 µM was 20 to 50%.

`CCCCCCCCCCCC(=O)Nc1cc(C)nn1C(C)(C)C` [Example 30, N-(1-tert-butyl-3-methylpyrazol-5-yl)dodecanamide] yielded an inhibition at 100 µM of over 50%.

Regarding `CCCCCCCCCCCC(=O)Nc1cc(C)nn1-c1ccccc1` [Example 31, N-(3-methyl-1-phenylpyrazol-5-yl)dodecanamide], the inhibition at 100 µM was under 20%.

Compound `CCCCCCCCCC(=O)N[C@H]1CCOC1=O` [Example 32, N-decanoyl-L-homoserinelactone] gave an inhibition at 100 µM of under 20%.

`CCCCCCCCCCCC(=O)N[C@H]1CCOC1=O` [Example 33, N-dodecanoyl-L-homoserinelactone] came in with an inhibition at 100 µM of under 20%.

In the case of `CCCCCCCCCCCC(=O)N1CCCCC1CO` (stereo not shown) [Example 37, 1-(2-(hydroxymethyl)piperidin-1-yl)dodecan-1-one], the inhibition at 100 µM is over 50%.

For `CCCCNC(=O)Nc1cc(C)nn1C` [Example 38, 1-butyl-3-(1,3-dimethylpyrazol-5-yl)urea], the inhibition at 100 µM is under 20%.

For the compound `CCCCNC(=O)Nc1cc(C2CC2)nn1C` [Example 39, 1-butyl-3-(3-cyclopropyl-1-methylpyrazol-5-yl)urea], the inhibition at 100 µM was under 20%.

Take `CCCCNC(=O)Nc1cc(C(C)(C)C)nn1C` [Example 40, 1-butyl-3-(3-tert-butyl-1-methylpyrazol-5-yl)urea]: the inhibition at 100 µM was under 20%.

As to `CCCCCCNC(=O)Nc1cc(C)nn1C` [Example 41, 1-(1,3-dimethylpyrazol-5-yl)-3-hexylurea], the inhibition at 100 µM was under 20%.

As for `CCCCCCNC(=O)Nc1cc(C2CC2)nn1C` [Example 42, 1-(3-cyclopropyl-1-methylpyrazol-5-yl)-3-hexylurea], the inhibition at 100 µM is 20 to 50%.

In turn, `CCCCCCNC(=O)Nc1cc(C(C)(C)C)nn1C` [Example 43, 1-(3-tert-butyl-1-methylpyrazol-5-yl)-3-hexylurea] gave an inhibition at 100 µM of 20 to 50%.

In turn, `CCCCCCCCNC(=O)Nc1cc(C)nn1C` [Example 44, 1-(1,3-dimethylpyrazol-5-yl)-3-octylurea] gave an inhibition at 100 µM of 20 to 50%.

Regarding `CCCCCCCCNC(=O)Nc1cc(C2CC2)nn1C` [Example 45, 1-(3-cyclopropyl-1-methylpyrazol-5-yl)-3-octylurea], the inhibition at 100 µM is 20 to 50%.

`CCCCCCCCNC(=O)Nc1cc(C(C)(C)C)nn1C` [Example 46, 1-(3-tert-butyl-1-methylpyrazol-5-yl)-3-octylurea] showed an inhibition at 100 µM of over 50%.

The compound `CCCCCCCCCCNC(=O)Nc1ccccc1` [Example 48, 1-decyl-3-phenylurea] gave an inhibition at 100 µM of under 20%.

The compound `CCCCCCCCCCNC(=O)Nc1ccccc1F` [Example 49, 1-decyl-3-(2-fluorophenyl)urea] gave an inhibition at 100 µM of under 20%.

As to `CCCCCCCCCCNC(=O)N(C)c1ccccc1F` [Example 50, 3-decyl-1-(2-fluorophenyl)-1-methylurea], the inhibition at 100 µM lay within 20 to 50%.

For `CCCCCCCCCCNC(=O)Nc1cccc(F)c1` [Example 51, 1-decyl-3-(3-fluorophenyl)urea], the inhibition at 100 µM is under 20%.

Compound `CCCCCCCCCCNC(=O)N(C)c1cccc(F)c1` [Example 52, 3-decyl-1-(3-fluorophenyl)-1-methylurea] registered an inhibition at 100 µM of 20 to 50%.

On to `CCCCCCCCCCNC(=O)Nc1ccc(F)cc1` [Example 53, 1-decyl-3-(4-fluorophenyl)urea], for which the inhibition at 100 µM was under 20%.

For the compound `CCCCCCCCCCNC(=O)N(C)c1ccc(F)cc1` [Example 54, 3-decyl-1-(4-fluorophenyl)-1-methylurea], the inhibition at 100 µM was over 50%.

With `CCCCCCCCCCNC(=O)Nc1ccc(F)cc1F` [Example 55, 1-decyl-3-(2,4-difluorophenyl)urea], the inhibition at 100 µM is under 20%.

Compound `CCCCCCCCCCNC(=O)N(C)c1ccc(F)cc1F` [Example 56, 3-decyl-1-(2,4-difluorophenyl)-1-methylurea] returned an inhibition at 100 µM of under 20%.

The values above are taken from patent publication US20090192192A1, “INHIBITORS OF BIOFILM FORMATION OF GRAM-POSITIVE AND GRAM-NEGATIVE BACTERIA” (priority 2007, published 2009).
